Data published in ChEMBL document CHEMBL5726901, “Heterocyclic inhibitors of PTPN11” (2019).

Assay: pERK AlphaScreen Protocol: KYSE-520 cells (10 k cells/well) were grown in 384-well plate in 20 uL of medium (RPMI-1640, without phenol red, containing 10% FBS) at 37° C. with 5% CO2 overnight. DMSO (control) or increasing concentrations of compounds were diluted in medium, added to the 384-well plate (5 uL/well, final DMSO concentration of 1%), and cells were then incubated with compounds for 2 hr. Phospho-ERK levels were measured using phospho-ERK1/2 AlphaScreen SureFire (PerkinElmer, TGRESB10K) following manufacturer's recommendations. Dose-response curves were analyzed using IC50 regression curve fitting (GeneData Screener). Curves were normalized to a high control without inhibitor (DMSO only), and low control (1 μM selumetinib).
Details: KYSE-520, 2 h

## COc1ccc(CNc2nccc(C(=O)c3ncc(N4CCC(C)([C@@H](C)N[S+]([O-])C(C)(C)C)CC4)nc3Cl)c2Cl)cc1 (some centres not stated)
  IC50: 100 nM

## CC1(N)CCN(c2cnc3c(-c4cc(N)ccc4Cl)n[nH]c3n2)CC1
  IC50: 406 nM
